Columns and labels:
[1] = tested on: A549; experiment: Cytotoxicity against human A549 cells; assay type: functional, cell-based
[2] = tested on: P388; experiment: Cytotoxicity against mouse P388 cells after 48 hrs by MTT assay; assay type: functional, cell-based; conditions: P388, 48 h

SMILES | IC50 [1] | IC50 [2]
C=C/C=C\[C@H](C)[C@H](OC(N)=O)[C@@H](C)[C@H](O)[C@@H](C)C/C(C)=C\[C@H](C)[C@@H](O)[C@@H](C)/C=C\[C@@H](O)C[C@H](O)[C@H](C)[C@H](O)[C@@H](C)C(=O)OC | 74 nM | 65.8 nM
C=C/C=C\[C@H](C)[C@H](OC(N)=O)[C@@H](C)[C@H](O)[C@@H](C)C/C(C)=C\[C@H](C)[C@@H](O)[C@@H](C)/C=C\[C@@H](O)C[C@@H]1OC(=O)C[C@@H](O)[C@H]1C | 120 nM | 172 nM
C=C/C=C\[C@H](C)[C@H](OC(N)=O)[C@@H](C)[C@H](O)[C@@H](C)C/C(C)=C\[C@H](C)[C@@H](O)[C@@H](C)/C=C\[C@@H](O)C[C@@H]1OC(=O)[C@@H](C)[C@@H](O)[C@H]1C | 67 nM | 134 nM
C=C/C=C\[C@H](C)[C@H](O)[C@@H](C)[C@H](O)[C@@H](C)C/C(C)=C\[C@H](C)[C@@H](O)[C@@H](C)/C=C\[C@@H](O)C[C@@H]1OC(=O)[C@H](C)[C@@H](O)[C@H]1C | 74 nM | 128 nM
C=C/C=C\C(C)C(OC(N)=O)C(C)C(O)C(C)/C=C(\C)C1C(C)C(O)C(C)C1/C=C/C[C@@H]1OC(=O)[C@H](C)[C@@H](O)[C@@H]1C (stereo partly specified) | 4490 nM | 5040 nM
C=C/C=C\[C@H](C)[C@H](OC(N)=O)[C@@H](C)[C@H](O)[C@@H](C)C/C(C)=C\[C@H](C)[C@@H](O)[C@@H](C)/C=C\[C@@H](O)C[C@@H]1OC(=O)[C@H](C)[C@@H](O)[C@H]1C [DISERMOLIDE] | 13.5 nM | 

Source: ChEMBL document CHEMBL1150132, “Five new discodermolide analogues from the marine sponge Discodermia species” (J Nat Prod, 2002)
